Data published in the NIST ThermoML archive (doi:10.1016/j.jct.2005.04.010).
± gives the expanded uncertainty stated by the source.

Assay: activity coefficient (dimensionless); of the first substance listed, at infinite dilution; xn = mol fraction of the nth substance listed
Details: Liquid, x1 = 0

| SMILES | activity coefficient (303.15 K, Chromatography) | activity coefficient (313.15 K, Chromatography) | activity coefficient (323.15 K, Chromatography) | activity coefficient (333.15 K, Chromatography) | activity coefficient (303.15 K, dilutor) | activity coefficient (313.15 K, dilutor) | activity coefficient (323.15 K, dilutor) | activity coefficient (333.15 K, dilutor) |
| --- | --- | --- | --- | --- | --- | --- | --- | --- |
| c1ccccc1 [benzene] + CCCCCCCCn1cc[n+](C)c1.O=S(=O)([N-]S(=O)(=O)C(F)(F)F)C(F)(F)F | 0.63 ± 0.03 | 0.65 ± 0.03 | 0.65 ± 0.03 | 0.66 ± 0.03 | – | – | – | – |
| C1CCCCC1 [cyclohexane] + CCCCCCCCn1cc[n+](C)c1.O=S(=O)([N-]S(=O)(=O)C(F)(F)F)C(F)(F)F | 3.64 ± 0.17 | 3.52 ± 0.16 | 3.36 ± 0.15 | 3.29 ± 0.15 | 3.67 ± 0.18 | 3.59 ± 0.18 | 3.48 ± 0.17 | 3.39 ± 0.17 |
| C=CCCCCCC [oct-1-ene] + CCCCCCCCn1cc[n+](C)c1.O=S(=O)([N-]S(=O)(=O)C(F)(F)F)C(F)(F)F | 5.57 ± 0.25 | 5.48 ± 0.25 | 5.32 ± 0.24 | 5.28 ± 0.24 | – | – | – | – |
| Cc1ccccc1C [1,2-dimethylbenzene] + CCCCCCCCn1cc[n+](C)c1.O=S(=O)([N-]S(=O)(=O)C(F)(F)F)C(F)(F)F | 0.98 ± 0.03 | 1.03 ± 0.03 | 1.03 ± 0.03 | 1.05 ± 0.03 | – | – | – | – |
| CC(C)O [propan-2-ol] + CCCCCC[n+]1ccn(C)c1.O=S(=O)([N-]S(=O)(=O)C(F)(F)F)C(F)(F)F | 1.71 ± 0.07 | – | 1.44 ± 0.05 | 1.33 ± 0.05 | 1.72 ± 0.09 | – | 1.37 ± 0.07 | 1.23 ± 0.06 |
| C1CCOC1 [tetrahydrofuran] + CCCCCC[n+]1ccn(C)c1.O=S(=O)([N-]S(=O)(=O)C(F)(F)F)C(F)(F)F | 0.49 ± 0.03 | 0.51 ± 0.03 | 0.53 ± 0.03 | 0.55 ± 0.03 | – | – | – | – |
| CCO [ethanol] + CCCC[N+]1(C)CCCC1.O=S(=O)([N-]S(=O)(=O)C(F)(F)F)C(F)(F)F | – | – | – | – | 1.84 ± 0.09 | 1.73 ± 0.09 | 1.63 ± 0.08 | 1.5 ± 0.08 |
| CCO [ethanol] + CCCCCC[n+]1ccn(C)c1.O=S(=O)([N-]S(=O)(=O)C(F)(F)F)C(F)(F)F | 1.6 ± 0.06 | 1.47 ± 0.06 | 1.36 ± 0.05 | 1.27 ± 0.04 | – | – | – | – |
| C1CCCC1 [cyclopentane] + CCCCCCCCn1cc[n+](C)c1.O=S(=O)([N-]S(=O)(=O)C(F)(F)F)C(F)(F)F | – | – | – | – | 2.68 ± 0.13 | 2.64 ± 0.13 | 2.59 ± 0.13 | 2.56 ± 0.13 |
| C1=CCCCC1 [cyclohexene] + CCCCCCCCn1cc[n+](C)c1.O=S(=O)([N-]S(=O)(=O)C(F)(F)F)C(F)(F)F | 2.41 ± 0.11 | 2.38 ± 0.11 | 2.31 ± 0.1 | 2.29 ± 0.1 | 2.44 ± 0.12 | 2.38 ± 0.12 | 2.33 ± 0.12 | 2.28 ± 0.11 |
| CC(C)O [propan-2-ol] + CCCC[N+]1(C)CCCC1.O=S(=O)([N-]S(=O)(=O)C(F)(F)F)C(F)(F)F | – | – | – | – | 2.11 ± 0.11 | 1.92 ± 0.1 | 1.77 ± 0.09 | 1.63 ± 0.08 |
| CCC(C)=O [butanone] + CCCC[N+]1(C)CCCC1.O=S(=O)([N-]S(=O)(=O)C(F)(F)F)C(F)(F)F | – | – | – | – | 0.52 ± 0.03 | 0.53 ± 0.03 | 0.55 ± 0.03 | 0.56 ± 0.03 |
| CCCCCCCC [octane] + CCCCCCCCn1cc[n+](C)c1.O=S(=O)([N-]S(=O)(=O)C(F)(F)F)C(F)(F)F | 8.92 ± 0.41 | 8.43 ± 0.39 | 8.14 ± 0.37 | 7.82 ± 0.36 | – | – | – | – |
| C1CCCC1 [cyclopentane] + CCCCCC[n+]1ccn(C)c1.O=S(=O)([N-]S(=O)(=O)C(F)(F)F)C(F)(F)F | – | – | – | – | 3.64 ± 0.18 | 3.48 ± 0.17 | 3.27 ± 0.16 | 3.26 ± 0.16 |
| Cc1ccccc1 [toluene] + CCCCCC[n+]1ccn(C)c1.O=S(=O)([N-]S(=O)(=O)C(F)(F)F)C(F)(F)F | 1.01 ± 0.03 | 1.03 ± 0.03 | 1.05 ± 0.03 | 1.08 ± 0.03 | – | – | – | – |
| Cc1cccc(C)c1 [1,3-dimethylbenzene] + CCCCCC[n+]1ccn(C)c1.O=S(=O)([N-]S(=O)(=O)C(F)(F)F)C(F)(F)F | 1.4 ± 0.05 | 1.41 ± 0.05 | 1.46 ± 0.06 | 1.5 ± 0.06 | – | – | – | – |
| C=CCCCCC [1-heptene] + CCCC[N+]1(C)CCCC1.O=S(=O)([N-]S(=O)(=O)C(F)(F)F)C(F)(F)F | – | – | – | – | 10.4 ± 0.5 | 9.97 ± 0.5 | 9.69 ± 0.48 | 9.37 ± 0.47 |

| SMILES | activity coefficient (303.15 K, Chromatography) | activity coefficient (313.15 K, Chromatography) | activity coefficient (323.15 K, Chromatography) | activity coefficient (333.15 K, Chromatography) | activity coefficient (303.15 K, dilutor) | activity coefficient (313.15 K, dilutor) | activity coefficient (323.15 K, dilutor) | activity coefficient (333.15 K, dilutor) |
| --- | --- | --- | --- | --- | --- | --- | --- | --- |
| C=CCCCC [hex-1-ene] + CCCC[N+]1(C)CCCC1.O=S(=O)([N-]S(=O)(=O)C(F)(F)F)C(F)(F)F | – | – | – | – | 7.08 ± 0.35 | 6.92 ± 0.35 | 6.82 ± 0.34 | 6.64 ± 0.33 |
| CC(C)OC(C)C [diisopropyl ether] + CCCCCC[n+]1ccn(C)c1.O=S(=O)([N-]S(=O)(=O)C(F)(F)F)C(F)(F)F | 2.76 ± 0.13 | 2.82 ± 0.13 | 2.85 ± 0.13 | 2.92 ± 0.13 | – | – | – | – |
| CCCCCC [hexane] + CCCCCCCCn1cc[n+](C)c1.O=S(=O)([N-]S(=O)(=O)C(F)(F)F)C(F)(F)F | 5.32 ± 0.24 | 5.13 ± 0.23 | 4.92 ± 0.22 | 4.8 ± 0.22 | 5.44 ± 0.27 | 5.26 ± 0.26 | 5.13 ± 0.26 | 4.97 ± 0.25 |
| C1CCCCC1 [cyclohexane] + CCCC[N+]1(C)CCCC1.O=S(=O)([N-]S(=O)(=O)C(F)(F)F)C(F)(F)F | – | – | – | – | 8.75 ± 0.44 | 8.43 ± 0.42 | 7.91 ± 0.4 | 7.42 ± 0.37 |
| CCCCCCC [heptane] + CCCCCC[n+]1ccn(C)c1.O=S(=O)([N-]S(=O)(=O)C(F)(F)F)C(F)(F)F | 11.2 ± 0.5 | 10.6 ± 0.5 | 10 ± 0.5 | 9.67 ± 0.44 | 11 ± 0.6 | 10.6 ± 0.5 | 10.1 ± 0.5 | 9.77 ± 0.49 |
| CCCCCCCC [octane] + CCCCCC[n+]1ccn(C)c1.O=S(=O)([N-]S(=O)(=O)C(F)(F)F)C(F)(F)F | 15.2 ± 0.7 | 14.3 ± 0.7 | 13.5 ± 0.6 | 13 ± 0.6 | 14.4 ± 0.7 | 14.1 ± 0.7 | 13.1 ± 0.7 | 12.8 ± 0.6 |
| C=CCCCC [hex-1-ene] + CCCCCCCCn1cc[n+](C)c1.O=S(=O)([N-]S(=O)(=O)C(F)(F)F)C(F)(F)F | 3.29 ± 0.15 | 3.27 ± 0.15 | 3.18 ± 0.14 | 3.18 ± 0.14 | 3.33 ± 0.17 | 3.3 ± 0.17 | 3.27 ± 0.16 | 3.23 ± 0.16 |
| C=CCCCCCC [oct-1-ene] + CCCCCC[n+]1ccn(C)c1.O=S(=O)([N-]S(=O)(=O)C(F)(F)F)C(F)(F)F | 8.81 ± 0.4 | 8.47 ± 0.39 | 8.18 ± 0.38 | 7.9 ± 0.36 | 8.28 ± 0.41 | 8.08 ± 0.4 | 7.92 ± 0.4 | 7.77 ± 0.39 |
| CCCCCCCC [octane] + CCCC[N+]1(C)CCCC1.O=S(=O)([N-]S(=O)(=O)C(F)(F)F)C(F)(F)F | – | – | – | – | 28.3 ± 1.4 | 26.5 ± 1.3 | 25.2 ± 1.3 | 23.7 ± 1.2 |
| CCCO [propan-1-ol] + CCCCCCCCn1cc[n+](C)c1.O=S(=O)([N-]S(=O)(=O)C(F)(F)F)C(F)(F)F | 1.67 ± 0.07 | 1.51 ± 0.06 | 1.35 ± 0.05 | 1.24 ± 0.04 | – | – | – | – |
| C=CCCC [1-pentene] + CCCCCC[n+]1ccn(C)c1.O=S(=O)([N-]S(=O)(=O)C(F)(F)F)C(F)(F)F | 3.47 ± 0.16 | 3.4 ± 0.15 | 3.3 ± 0.15 | 3.31 ± 0.15 | 3.36 ± 0.17 | 3.33 ± 0.17 | 3.3 ± 0.17 | 3.23 ± 0.16 |
| CCCC(C)=O [pentan-2-one] + CCCC[N+]1(C)CCCC1.O=S(=O)([N-]S(=O)(=O)C(F)(F)F)C(F)(F)F | – | – | – | – | 0.63 ± 0.03 | 0.66 ± 0.03 | 0.68 ± 0.03 | 0.71 ± 0.04 |
| O [water] + CCCCCCCCn1cc[n+](C)c1.O=S(=O)([N-]S(=O)(=O)C(F)(F)F)C(F)(F)F | 3.89 ± 0.18 | 3.52 ± 0.16 | 3.03 ± 0.14 | 2.58 ± 0.12 | 3.76 ± 0.19 | 3.51 ± 0.18 | 3.29 ± 0.16 | – |
| CCCCC [pentane] + CCCC[N+]1(C)CCCC1.O=S(=O)([N-]S(=O)(=O)C(F)(F)F)C(F)(F)F | – | – | – | – | 9.22 ± 0.46 | 9.18 ± 0.46 | 8.62 ± 0.43 | 8.29 ± 0.41 |
| CCCCC [pentane] + CCCCCCCCn1cc[n+](C)c1.O=S(=O)([N-]S(=O)(=O)C(F)(F)F)C(F)(F)F | 4.07 ± 0.19 | 3.94 ± 0.18 | 3.78 ± 0.17 | 3.6 ± 0.16 | 3.98 ± 0.2 | 3.92 ± 0.2 | 3.87 ± 0.19 | 3.84 ± 0.19 |
| CCCCCC [hexane] + CCCCCC[n+]1ccn(C)c1.O=S(=O)([N-]S(=O)(=O)C(F)(F)F)C(F)(F)F | 8.23 ± 0.38 | 7.82 ± 0.36 | 7.48 ± 0.34 | 7.27 ± 0.33 | 7.82 ± 0.39 | 7.55 ± 0.38 | 6.96 ± 0.35 | 6.55 ± 0.33 |
| Cc1ccc(C)cc1 [1,4-dimethylbenzene] + CCCCCC[n+]1ccn(C)c1.O=S(=O)([N-]S(=O)(=O)C(F)(F)F)C(F)(F)F | 1.42 ± 0.05 | 1.42 ± 0.05 | 1.48 ± 0.06 | 1.51 ± 0.06 | – | – | – | – |
